Reference: ChEMBL document CHEMBL5131499, “Design, synthesis and glycosidase inhibition of C-4 branched LAB and DAB derivatives” (Eur J Med Chem, 2022)

target: Lysosomal alpha-glucosidase (Homo sapiens, UniProt P10253); assay: Inhibition of human lysosomal alpha glucosidase assessed as release of p-nitrophenol at 1000 uM using p-nitrophenyl glycoside as substrate by spectrometric assay relative to control

SMILES	inhibition [%]
OC[C@]1(c2c(F)c(F)c(F)c(F)c2F)NC[C@H](O)[C@H]1O	6.9
COc1cccc([C@@]2(CO)NC[C@H](O)[C@H]2O)c1	46
COc1ccc([C@]2(CO)NC[C@@H](O)[C@@H]2O)cc1OC	11.1

system: Prunus dulcis; assay: Inhibition of almond beta-glucosidase assessed as release of p-nitrophenol at 1000 uM using p-nitrophenyl glycoside as substrate by spectrometric assay relative to control

SMILES	inhibition [%]
OC[C@]1(c2c(F)c(F)c(F)c(F)c2F)NC[C@H](O)[C@H]1O	4.6
COc1cccc([C@@]2(CO)NC[C@H](O)[C@H]2O)c1	1.7
COc1ccc([C@]2(CO)NC[C@@H](O)[C@@H]2O)cc1OC	0

system: Helix pomatia; assay: Inhibition of snail beta-mannosidase assessed as release of p-nitrophenol at 1000 uM using p-nitrophenyl glycoside as substrate by spectrometric assay relative control

SMILES	inhibition [%]
OC[C@]1(c2c(F)c(F)c(F)c(F)c2F)NC[C@H](O)[C@H]1O	0
COc1cccc([C@@]2(CO)NC[C@H](O)[C@H]2O)c1	0
COc1ccc([C@]2(CO)NC[C@@H](O)[C@@H]2O)cc1OC	0

system: Escherichia coli; assay: Inhibition of Escherichia coli beta-glucuronidase assessed as release of p-nitrophenol at 1000 uM using p-nitrophenyl glycoside as substrate by spectrometric assay relative to control

SMILES	inhibition [%]
OC[C@]1(c2c(F)c(F)c(F)c(F)c2F)NC[C@H](O)[C@H]1O	2.6
COc1cccc([C@@]2(CO)NC[C@H](O)[C@H]2O)c1	0
COc1ccc([C@]2(CO)NC[C@@H](O)[C@@H]2O)cc1OC	0

system: Aspergillus niger; assay: Inhibition of Aspergillus niger amyloglucosidase assessed as release of p-nitrophenol at 1000 uM using p-nitrophenyl glycoside as substrate by spectrometric assay relative to control

SMILES	inhibition [%]
OC[C@]1(c2c(F)c(F)c(F)c(F)c2F)NC[C@H](O)[C@H]1O	4.4
COc1cccc([C@@]2(CO)NC[C@H](O)[C@H]2O)c1	5
COc1ccc([C@]2(CO)NC[C@@H](O)[C@@H]2O)cc1OC	0.5

target: Alpha-galactosidase (Coffea arabica) (UniProt Q42656); assay: Inhibition of coffee beans alpha-galactosidase assessed as release of p-nitrophenol at 1000 uM using p-nitrophenyl glycoside as substrate by spectrometric assay relative to control
Sequence (Q42656 16-378 limits assumed): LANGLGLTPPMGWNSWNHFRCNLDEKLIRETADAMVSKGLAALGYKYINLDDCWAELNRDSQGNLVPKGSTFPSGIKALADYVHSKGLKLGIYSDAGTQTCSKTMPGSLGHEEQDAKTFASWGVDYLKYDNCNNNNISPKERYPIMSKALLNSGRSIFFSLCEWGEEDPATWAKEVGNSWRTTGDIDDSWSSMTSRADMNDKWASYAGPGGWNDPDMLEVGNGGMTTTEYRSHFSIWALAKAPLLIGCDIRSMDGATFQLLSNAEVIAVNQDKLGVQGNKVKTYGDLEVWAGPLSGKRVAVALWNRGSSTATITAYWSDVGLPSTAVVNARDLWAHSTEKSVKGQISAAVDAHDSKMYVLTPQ

SMILES	inhibition [%]
COc1cccc([C@@]2(CO)NC[C@H](O)[C@H]2O)c1	1.6
COc1ccc([C@]2(CO)NC[C@@H](O)[C@@H]2O)cc1OC	0

species: Rattus norvegicus; assay: Inhibition of rat intestinal alpha-trehalase assessed as release of p-nitrophenol at 1000 uM using p-nitrophenyl glycoside as substrate by spectrometric assay relative to control

SMILES	inhibition [%]
OC[C@]1(c2c(F)c(F)c(F)c(F)c2F)NC[C@H](O)[C@H]1O	40.2
COc1cccc([C@@]2(CO)NC[C@H](O)[C@H]2O)c1	0.6
COc1ccc([C@]2(CO)NC[C@@H](O)[C@@H]2O)cc1OC	0

target: Sucrase-isomaltase, intestinal (Rattus norvegicus, UniProt P23739); assay: Inhibition of rat intestinal sucrase assessed as release of p-nitrophenol using p-nitrophenyl glycoside as substrate by spectrometric assay
Sequence (P23739 1-1013 limits assumed): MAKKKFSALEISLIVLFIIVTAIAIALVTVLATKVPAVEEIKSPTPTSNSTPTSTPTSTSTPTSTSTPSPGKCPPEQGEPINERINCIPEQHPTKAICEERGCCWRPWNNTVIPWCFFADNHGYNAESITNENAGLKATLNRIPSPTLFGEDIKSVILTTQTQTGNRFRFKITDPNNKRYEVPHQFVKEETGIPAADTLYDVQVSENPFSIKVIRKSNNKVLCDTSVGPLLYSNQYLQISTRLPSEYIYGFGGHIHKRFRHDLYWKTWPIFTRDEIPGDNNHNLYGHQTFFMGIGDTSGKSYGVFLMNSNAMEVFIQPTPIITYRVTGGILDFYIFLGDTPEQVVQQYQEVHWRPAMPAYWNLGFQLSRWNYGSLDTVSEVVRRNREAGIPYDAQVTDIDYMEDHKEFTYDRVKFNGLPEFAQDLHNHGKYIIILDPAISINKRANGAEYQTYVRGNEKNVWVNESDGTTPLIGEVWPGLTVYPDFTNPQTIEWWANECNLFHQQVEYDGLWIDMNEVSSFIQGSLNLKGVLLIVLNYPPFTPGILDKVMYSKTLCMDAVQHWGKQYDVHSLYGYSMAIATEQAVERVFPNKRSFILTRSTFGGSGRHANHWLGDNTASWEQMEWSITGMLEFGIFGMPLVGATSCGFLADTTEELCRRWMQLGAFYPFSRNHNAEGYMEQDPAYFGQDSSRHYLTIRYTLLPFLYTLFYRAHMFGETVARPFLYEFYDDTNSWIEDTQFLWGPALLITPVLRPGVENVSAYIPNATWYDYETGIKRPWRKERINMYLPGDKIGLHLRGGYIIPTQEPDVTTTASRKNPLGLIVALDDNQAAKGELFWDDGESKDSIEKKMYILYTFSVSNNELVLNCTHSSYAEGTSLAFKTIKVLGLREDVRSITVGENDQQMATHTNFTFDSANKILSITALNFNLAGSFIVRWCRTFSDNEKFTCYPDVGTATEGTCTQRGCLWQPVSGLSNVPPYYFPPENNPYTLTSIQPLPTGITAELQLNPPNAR
Sequence (P23739 1014-1841 limits assumed): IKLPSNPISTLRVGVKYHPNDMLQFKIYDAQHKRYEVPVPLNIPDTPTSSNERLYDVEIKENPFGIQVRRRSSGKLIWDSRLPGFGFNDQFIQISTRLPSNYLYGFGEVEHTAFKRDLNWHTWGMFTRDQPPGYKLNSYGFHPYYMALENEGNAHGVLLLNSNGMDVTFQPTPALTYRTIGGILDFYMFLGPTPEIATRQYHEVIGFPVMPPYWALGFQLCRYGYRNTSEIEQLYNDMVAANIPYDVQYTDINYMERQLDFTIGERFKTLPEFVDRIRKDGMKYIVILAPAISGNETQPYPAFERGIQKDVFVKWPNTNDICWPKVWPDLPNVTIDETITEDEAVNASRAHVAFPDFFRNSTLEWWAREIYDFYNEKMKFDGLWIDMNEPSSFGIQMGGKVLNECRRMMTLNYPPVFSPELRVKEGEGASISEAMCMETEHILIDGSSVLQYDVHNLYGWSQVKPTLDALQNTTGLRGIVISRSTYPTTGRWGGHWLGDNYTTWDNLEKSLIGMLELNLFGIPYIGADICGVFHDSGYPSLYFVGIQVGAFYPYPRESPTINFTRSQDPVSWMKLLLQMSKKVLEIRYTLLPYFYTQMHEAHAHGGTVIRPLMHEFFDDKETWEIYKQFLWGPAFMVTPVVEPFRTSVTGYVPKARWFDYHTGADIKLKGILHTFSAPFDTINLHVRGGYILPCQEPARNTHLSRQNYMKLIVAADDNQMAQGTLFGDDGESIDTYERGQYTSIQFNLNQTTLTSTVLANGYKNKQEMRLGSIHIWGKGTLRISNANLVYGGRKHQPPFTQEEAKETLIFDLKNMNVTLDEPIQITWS

SMILES	IC50 [µM]
OC[C@]1(c2c(F)c(F)c(F)c(F)c2F)NC[C@H](O)[C@H]1O	4.1
COc1cccc([C@@]2(CO)NC[C@H](O)[C@H]2O)c1	2.2
COc1ccc([C@]2(CO)NC[C@@H](O)[C@@H]2O)cc1OC	4.1

target: T1, Alpha-mannosidase (Canavalia ensiformis) (UniProt C0HJB3); assay: Inhibition of jack bean alpha-mannosidase assessed as release of p-nitrophenol at 1000 uM using p-nitrophenyl glycoside as substrate by spectrometric assay relative to control
T1 sequence (whole entry): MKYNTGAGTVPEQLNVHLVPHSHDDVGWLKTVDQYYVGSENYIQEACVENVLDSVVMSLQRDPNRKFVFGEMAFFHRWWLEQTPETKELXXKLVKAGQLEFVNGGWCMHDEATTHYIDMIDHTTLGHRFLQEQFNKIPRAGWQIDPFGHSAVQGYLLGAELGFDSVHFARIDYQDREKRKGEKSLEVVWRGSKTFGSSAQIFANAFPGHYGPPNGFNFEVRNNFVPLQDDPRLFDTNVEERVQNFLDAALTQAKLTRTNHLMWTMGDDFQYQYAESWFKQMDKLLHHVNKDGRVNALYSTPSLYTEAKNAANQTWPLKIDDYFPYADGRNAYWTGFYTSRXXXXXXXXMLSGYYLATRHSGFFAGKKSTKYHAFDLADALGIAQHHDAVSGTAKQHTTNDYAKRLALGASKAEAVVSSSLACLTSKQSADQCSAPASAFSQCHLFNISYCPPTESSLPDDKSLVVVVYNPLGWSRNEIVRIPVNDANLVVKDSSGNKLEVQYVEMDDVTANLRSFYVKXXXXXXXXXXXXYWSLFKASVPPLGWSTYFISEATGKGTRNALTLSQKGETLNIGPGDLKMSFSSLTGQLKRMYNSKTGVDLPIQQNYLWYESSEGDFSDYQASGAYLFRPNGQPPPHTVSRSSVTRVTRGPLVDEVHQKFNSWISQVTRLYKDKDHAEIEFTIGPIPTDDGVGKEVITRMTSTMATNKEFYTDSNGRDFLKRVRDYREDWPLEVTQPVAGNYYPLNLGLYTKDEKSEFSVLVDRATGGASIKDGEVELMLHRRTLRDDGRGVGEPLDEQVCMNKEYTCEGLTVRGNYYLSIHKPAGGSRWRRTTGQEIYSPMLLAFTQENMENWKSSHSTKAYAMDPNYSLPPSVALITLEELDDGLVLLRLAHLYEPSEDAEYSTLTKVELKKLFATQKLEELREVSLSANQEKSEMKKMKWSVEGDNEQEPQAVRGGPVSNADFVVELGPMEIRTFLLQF

SMILES	inhibition [%]
OC[C@]1(c2c(F)c(F)c(F)c(F)c2F)NC[C@H](O)[C@H]1O	6.6
COc1cccc([C@@]2(CO)NC[C@H](O)[C@H]2O)c1	0
COc1ccc([C@]2(CO)NC[C@@H](O)[C@@H]2O)cc1OC	0

species: Bos taurus; assay: Inhibition of bovine liver beta-galactosidase assessed as release of p-nitrophenol at 1000 uM using p-nitrophenyl glycoside as substrate by spectrometric assay relative to control

SMILES	inhibition [%]
OC[C@]1(c2c(F)c(F)c(F)c(F)c2F)NC[C@H](O)[C@H]1O	3.7
COc1cccc([C@@]2(CO)NC[C@H](O)[C@H]2O)c1	26.5
COc1ccc([C@]2(CO)NC[C@@H](O)[C@@H]2O)cc1OC	24.3

species: Bos taurus; assay: Inhibition of bovine liver beta-glucronidase assessed as release of p-nitrophenol at 1000 uM using p-nitrophenyl glycoside as substrate by spectrometric assay relative to control

SMILES	inhibition [%]
OC[C@]1(c2c(F)c(F)c(F)c(F)c2F)NC[C@H](O)[C@H]1O	3.6
COc1cccc([C@@]2(CO)NC[C@H](O)[C@H]2O)c1	8.2
COc1ccc([C@]2(CO)NC[C@@H](O)[C@@H]2O)cc1OC	17.5

species: Bos taurus; assay: Inhibition of bovine liver beta-glucosidase assessed as release of p-nitrophenol at 1000 uM using p-nitrophenyl glycoside as substrate by spectrometric assay relative to control

SMILES	inhibition [%]
OC[C@]1(c2c(F)c(F)c(F)c(F)c2F)NC[C@H](O)[C@H]1O	3.8
COc1cccc([C@@]2(CO)NC[C@H](O)[C@H]2O)c1	12.8
COc1ccc([C@]2(CO)NC[C@@H](O)[C@@H]2O)cc1OC	22.2

target: not listed separately; assay: Inhibition of yeast alpha-glucosidase assessed as release of p-nitrophenol using p-nitrophenyl glycoside as substrate by spectrometric assay; design: species or system Saccharomyces cerevisiae

SMILES	IC50 [µM]
OC[C@]1(c2c(F)c(F)c(F)c(F)c2F)NC[C@H](O)[C@H]1O	528
COc1cccc([C@@]2(CO)NC[C@H](O)[C@H]2O)c1	19
COc1ccc([C@]2(CO)NC[C@@H](O)[C@@H]2O)cc1OC	243

system: Oryza sativa; assay: Inhibition of rice alpha-glucosidase assessed as release of p-nitrophenol at 1000 uM using p-nitrophenyl glycoside as substrate by spectrometric assay relative to control

SMILES	inhibition [%]
OC[C@]1(c2c(F)c(F)c(F)c(F)c2F)NC[C@H](O)[C@H]1O	0
COc1cccc([C@@]2(CO)NC[C@H](O)[C@H]2O)c1	47.3
COc1ccc([C@]2(CO)NC[C@@H](O)[C@@H]2O)cc1OC	11.4

target: T2, Tissue alpha-L-fucosidase (Bos taurus) (UniProt Q2KIM0); assay: Inhibition of bovine kidney alpha-L-fucosidase assessed as release of p-nitrophenol at 1000 uM using p-nitrophenyl glycoside as substrate by spectrometric assay relative to control
T2 sequence (whole entry): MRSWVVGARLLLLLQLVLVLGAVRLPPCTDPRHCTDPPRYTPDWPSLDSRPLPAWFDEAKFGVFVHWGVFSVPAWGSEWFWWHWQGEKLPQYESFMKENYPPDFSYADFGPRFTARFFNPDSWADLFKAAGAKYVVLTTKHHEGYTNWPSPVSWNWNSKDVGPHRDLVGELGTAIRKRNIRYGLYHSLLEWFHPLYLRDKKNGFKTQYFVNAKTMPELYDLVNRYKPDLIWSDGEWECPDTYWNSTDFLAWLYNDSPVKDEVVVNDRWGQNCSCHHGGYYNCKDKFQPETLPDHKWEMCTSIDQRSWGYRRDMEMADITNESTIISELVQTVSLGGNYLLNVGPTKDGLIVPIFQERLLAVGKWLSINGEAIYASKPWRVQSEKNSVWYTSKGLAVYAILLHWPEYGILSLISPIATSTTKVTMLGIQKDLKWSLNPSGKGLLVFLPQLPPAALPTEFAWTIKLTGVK

SMILES	inhibition [%]
OC[C@]1(c2c(F)c(F)c(F)c(F)c2F)NC[C@H](O)[C@H]1O	0
COc1cccc([C@@]2(CO)NC[C@H](O)[C@H]2O)c1	1.6
COc1ccc([C@]2(CO)NC[C@@H](O)[C@@H]2O)cc1OC	0

species: Sus scrofa; assay: Inhibition of porcine kidney alpha-trehalase assessed as release of p-nitrophenol at 1000 uM using p-nitrophenyl glycoside as substrate by spectrometric assay relative to control

SMILES	inhibition [%]
OC[C@]1(c2c(F)c(F)c(F)c(F)c2F)NC[C@H](O)[C@H]1O	2
COc1cccc([C@@]2(CO)NC[C@H](O)[C@H]2O)c1	3.8
COc1ccc([C@]2(CO)NC[C@@H](O)[C@@H]2O)cc1OC	0.8

system: Penicillium decumbens; assay: Inhibition of Penicillium decumbens alpha-L-rhamnosidase assessed as release of p-nitrophenol at 1000 uM using p-nitrophenyl glycoside as substrate by spectrometric assay relative to control

SMILES	inhibition [%]
OC[C@]1(c2c(F)c(F)c(F)c(F)c2F)NC[C@H](O)[C@H]1O	2
COc1cccc([C@@]2(CO)NC[C@H](O)[C@H]2O)c1	5.5
COc1ccc([C@]2(CO)NC[C@@H](O)[C@@H]2O)cc1OC	0
